Experimental data as given in patent US20230065495A1, “MULTIPARTITE AND CIRCULARLY PERMUTED BETA-BARREL POLYPEPTIDES AND METHODS FOR THEIR USE” (University of Washington, priority 2020, published 2023).
“And” between values parts separate entries of the source, which are not always exact repeats. Equal values may be shown once. Marks after values point to notes of the source that are not given here. Ends that are not written are not given here.

B1: MBP-tagged split mFAP fragment m58 (β-strands 5-8 of mFAP2a) (designed binder, not shown: large carriers)
chain: DTLDIDITYPSLGNIKAQGQITMDSPTQFKWDATTKGENDFHGRLTGTLQRQE
modifications: also: MBP-tagged (side and linker not given here)
B2: MBP-tagged split mFAP fragment m12 (β-strands 1-2 of mFAP2a) (designed binder, not shown: large carriers)
chain: SRAAQLLPGTWQATFTNEDGQTSQGQWHFQPRSP
modifications: also: MBP-tagged (side and linker not given here)
B3: MBP-tagged split mFAP fragment m48 (β-strands 4-8 of mFAP2a) (designed binder, not shown: large carriers)
chain: DGRPIVGYGKATVKTPDTLDIDITYPSLGNIKAQGQITMDSPTQFKWDATTKGENDFHGRLTGTLQRQE
B4: cp35-34_mFAP2a_12: circularly permuted mFAP, SEQ ID NO: 341; brightest cpmFAP tested (protein)
chain: QEMDIVAQGTISDGRPIVGYGKATVKTPDTLDIDITYPSLGNIKAQGQITMDSPTQFKWDATTKGENDFHGRLTGTLQRTEEAKEATEEARRRGITTQAAQLLPGTWQATFTNEDGQTSQGQWHFQPRDG
B5: MBP-tagged split mFAP fragment m13 (β-strands 1-3 of mFAP2a) (designed binder, not shown: large carriers)
chain: SRAAQLLPGTWQATFTNEDGQTSQGQWHFQPRSPYTMDIVAQGTIS
modifications: also: MBP-tagged (side and linker not given here)
B6: MBP-tagged split mFAP fragment m14 (β-strands 1-4 of mFAP2a) (designed binder, not shown: large carriers)
chain: SRAAQLLPGTWQATFTNEDGQTSQGQWHFQPRSPYTMDIVAQGTISDGRPIVGYGKATVKTP
B7: MBP-tagged split mFAP fragment m38 (β-strands 3-8 of mFAP2a) (designed binder, not shown: large carriers)
chain: YTMDIVAQGTISDGRPIVGYGKATVKTPDTLDIDITYPSLGNIKAQGQITMDSPTQFKWDATTKGENDFHGRLTGTLQRQE

What was measured:
[1] = cited from earlier work; for Extinction Coefficient / Reported Quantum Yield / λabs, peak absorbance wavelength / λem, peak emission wavelength / λex, peak excitation wavelength: previously reported value
[2] = molecular target: B6; assay: fluorescence complementation titration: MBP-tagged m58 titrated into fixed MBP-tagged m14 in 25.0 µM DFHBI-1T; signal did not plateau, Kd is at least the highest titrant concentration
Method: (§1) Split mFAP fragment affinities (FIG. 1d,e,f,g) were estimated by preparing MBP-tagged split mFAP fragments by large-scale protein purification in high salt Tev cleavage buffer⁹, with 25.0 μM DFHBI-1T final concentration at 28.0 μL final volumes per well in flat bottom, black polystyrene, non-binding surface 96-well half-area microplates (Corning 3686). 3.00 μL of either 132 μM m12, 122 μM m14, 101 μM m16, or 84.9 μM m17 in high salt Tev cleavage buffer was mixed with 3.00 μL of 150 μM DFHBI-1T in high salt Tev cleavage buffer. For each split mFAP fragment, 12.0 μL of the complementary split mFAP fragment in high salt Tev cleavage buffer (the titrant) was mixed in from eleven serial dilutions (\sqrt{10} dilution factor) starting from 422 μM m38, 33.0 μM m58, 348 μM m78, or 531 μM m8 stock solutions, respectively, including a twelfth condition without titrant. Fluorescence endpoints were measured on a Synergy Neo2 hybrid multi-mode reader (BioTek) using excitation wavelength λₑₓ=468 nm and emission wavelength λₑₘ=530 nm. For each titration, the fluorescence intensity of the condition without titrant was subtracted from the fluorescence intensities of samples containing titrant, then the background subtracted data was normalized from 0 to 1. […]

[3] = molecular target: B7; assay: split mFAP self-complementation, MBP-tagged fragments mixed equimolar with excess DFHBI-1T, fluorescence endpoint (n=3)
Method: (§2) To measure fluorescence intensities in complementation assays (FIG. 1b), fluorescence was measured on a Synergy Neo2 hybrid multi-mode reader (BioTek) in flat bottom, black polystyrene, non-binding surface 96-well half-area microplates (Corning 3686). Each split mFAP fragment covalently fused to maltose binding protein (MBP) was purified by large-scale protein purification in high salt Tev cleavage buffer⁹. In technical triplicate, 12.0 μL of each MBP-tagged split mFAP fragment was mixed to an equimolar concentration supplemented with 1.00 μL of 1.25 mM DFHBI-1T (Lucerna) at 25.0 μL final volumes per well. Fluorescence endpoints were measured using excitation wavelength λₑₓ=478 nm and emission wavelength λₑₘ=520 nm. In technical triplicate, background fluorescence endpoints of wells with identical chromophore concentrations lacking protein (substituted for equivalent volumes of high salt Tev cleavage buffer) were measured, and the mean fluorescence endpoints were subtracted from the mean fluorescence endpoints of samples containing protein (FIG. 1b).

[4] = molecular target: B5; assay: β-barrel self-complementation assay (fluorescence of DFHBI-1T)
Method: as §2

[5] = molecular target: T1, MBP-tagged split mFAP fragment m15 (β-strands 1-5 of mFAP2a); assay: as above
T1 chain: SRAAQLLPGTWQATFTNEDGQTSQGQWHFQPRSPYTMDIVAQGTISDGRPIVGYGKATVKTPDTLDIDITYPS
Method: as §2

[6] = cpmFAP fluorescence intensity assay; type: biochemical; conditions: equimolar concentration, excess DFHBI-1T
Method: To measure the fluorescence intensities of cpmFAPs (FIG. 4b,d), fluorescence endpoints were measured on a Synergy Neo2™ hybrid multi-mode reader (BioTek) in flat bottom, black polystyrene, non-binding surface 96-well microplates (Corning 3650) or half-area microplates (Corning 3686). […]

[7] = molecular target: B3; assay: split mFAP self-complementation, MBP-tagged fragments mixed equimolar with excess DFHBI-1T, fluorescence endpoint (n=3)
Method: as §2

[8] = molecular target: B1; assay: as above
Method: as §2

[9] = molecular target: T2, MBP-tagged split mFAP fragment m16 (β-strands 1-6 of mFAP2a); assay: fluorescence complementation titration: MBP-tagged m78 titrated into fixed MBP-tagged m16 in 25.0 µM DFHBI-1T; signal did not plateau, Kd is at least the highest titrant concentration
T2 chain: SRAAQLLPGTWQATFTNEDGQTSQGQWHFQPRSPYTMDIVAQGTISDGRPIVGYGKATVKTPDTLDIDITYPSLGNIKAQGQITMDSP
Method: as §1

[10] = molecular target: B2; assay: β-barrel self-complementation assay, equimolar MBP-tagged fragments in excess DFHBI-1T
Method: as §2

[11] = molecular target: B2; assay: β-barrel self-complementation assay, equimolar MBP-tagged fragments in excess DFHBI-1T; reference is m1 with m28
Method: as §2

[12] = molecular target: B2; assay: fluorescence complementation titration: MBP-tagged m38 titrated into fixed MBP-tagged m12 in 25.0 µM DFHBI-1T; signal did not plateau, Kd is at least the highest titrant concentration
Method: as §1

[13] = molecular target: T3, MBP-tagged split mFAP fragment m17 (β-strands 1-7 of mFAP2a); assay: fluorescence complementation titration: MBP-tagged m8 titrated into fixed MBP-tagged m17 in 25.0 µM DFHBI-1T; signal did not plateau, Kd is at least the highest titrant concentration
T3 chain: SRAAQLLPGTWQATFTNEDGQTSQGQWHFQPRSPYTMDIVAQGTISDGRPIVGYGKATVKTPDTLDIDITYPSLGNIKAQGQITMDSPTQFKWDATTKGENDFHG
Method: as §1

For CC1=N/C(=C\c2cc(F)c(O)c(F)c2)C(=O)N1CC(F)(F)F [DFHBI-1T, (Z)-4-(3,5-difluoro-4-hydroxybenzylidene)-2-methyl-1-(2,2,2-trifluoroethyl)-1H-imidazol-5(4H)-one], the “Extinction Coefficient” value [1] is listed as 35,400^¶ M^−1, cm^−1, the “Reported Quantum Yield” value [1] is listed as 0.00098^¶ and the “λabs, peak absorbance wavelength” value [1] is listed as 422^¶ nm. For the same molecule, the “λem, peak emission wavelength” value [1] was 495^¶ nm and the “λex, peak excitation wavelength” value [1] was 426^¶ nm.

In the case of CC1=NC(=Cc2cc(F)c(O)c(F)c2)C(=O)N1C [DFHBI, 3,5-difluoro-4-hydroxybenzylidene imidazolinone], the “Absolute Quantum Yield” value ([1]; marked previously reported value) is given as 0.001^#, the “Extinction Coefficient” value [1] is given as 30,100^¶ M^−1, cm^−1 and 31,935^# M^−1, cm^−1 and the “Reported Quantum Yield” value [1] is given as 0.0007^¶. For the same molecule, the “λabs, peak absorbance wavelength” value [1] was 418^¶ nm, the “λem, peak emission wavelength” value [1] was 489^¶ nm and the “λex, peak excitation wavelength” value [1] was 423^¶ nm.

In the case of Cc1cc2cc3cc(C)c(N)cc3nc2cc1N.Cl [Acridine Yellow G], the “quantum yield value of reference dye” value ([1]; in methanol) is given as 0.57.

With B1 the Kd [2] was no less than 22 µM.

B2: binds [3].

B3: binds [4].

LGNIKAQGQITMDSPTQFKWDATTKGENDFHGRLTGTLQRQE (designed binder, not shown: large carriers, also: MBP tag fused, side and linker not given here) [MBP-tagged split mFAP fragment m68 (β-strands 6-8 of mFAP2a)]: binds [5].

With B4 the “fluorescence intensity relative to mFAP2a” value [6] was roughly 93%.

B5: binds [7].

B6: binds [8].

TQFKWDATTKGENDFHGRLTGTLQRQE (designed binder, not shown: large carriers, also: MBP tag fused, side and linker not given here) [MBP-tagged split mFAP fragment m78 (β-strands 7-8 of mFAP2a)] gave a Kd [9] of no less than 232 µM.

In the case of B7, the “mean fluorescence intensity over mean background fluorescence intensity (fold)” value [10] is reported as 7.34 fold, the “background-subtracted mean fluorescence intensity relative to the m1 and m28 combination (fold)” value [11] is reported as 184 fold and the Kd [12] is reported as no less than 281 µM.

For RLTGTLQRQE (designed binder, not shown: large carriers, also: MBP tag fused, side and linker not given here) [MBP-tagged split mFAP fragment m8 (β-strand 8 of mFAP2a)], the Kd [13] was no less than 354 µM.
